pIC50: −log10 of the molar value. Calls of active or inactive are those of the source. The rule behind the calls is not given here.

In experiment [1] the target is T1, Leucine--tRNA ligase, cytoplasmic (Homo sapiens, UniProt Q9P2J5). The experiment can be described thus: Inhibition of LRS-dependent mTORC1 activation in HEK293 cells assessed as reduction in leucine-induced mTORC1-mediated S6 Kinase phosphorylation at 200 uM pretreated before leucine stimulation measured after 10 mins by immunoblot analysis. The format is cell-based. (Immunoblotting shows a protein as a band on a membrane.)
Target sequence in this assay (Q9P2J5 whole entry, looked up): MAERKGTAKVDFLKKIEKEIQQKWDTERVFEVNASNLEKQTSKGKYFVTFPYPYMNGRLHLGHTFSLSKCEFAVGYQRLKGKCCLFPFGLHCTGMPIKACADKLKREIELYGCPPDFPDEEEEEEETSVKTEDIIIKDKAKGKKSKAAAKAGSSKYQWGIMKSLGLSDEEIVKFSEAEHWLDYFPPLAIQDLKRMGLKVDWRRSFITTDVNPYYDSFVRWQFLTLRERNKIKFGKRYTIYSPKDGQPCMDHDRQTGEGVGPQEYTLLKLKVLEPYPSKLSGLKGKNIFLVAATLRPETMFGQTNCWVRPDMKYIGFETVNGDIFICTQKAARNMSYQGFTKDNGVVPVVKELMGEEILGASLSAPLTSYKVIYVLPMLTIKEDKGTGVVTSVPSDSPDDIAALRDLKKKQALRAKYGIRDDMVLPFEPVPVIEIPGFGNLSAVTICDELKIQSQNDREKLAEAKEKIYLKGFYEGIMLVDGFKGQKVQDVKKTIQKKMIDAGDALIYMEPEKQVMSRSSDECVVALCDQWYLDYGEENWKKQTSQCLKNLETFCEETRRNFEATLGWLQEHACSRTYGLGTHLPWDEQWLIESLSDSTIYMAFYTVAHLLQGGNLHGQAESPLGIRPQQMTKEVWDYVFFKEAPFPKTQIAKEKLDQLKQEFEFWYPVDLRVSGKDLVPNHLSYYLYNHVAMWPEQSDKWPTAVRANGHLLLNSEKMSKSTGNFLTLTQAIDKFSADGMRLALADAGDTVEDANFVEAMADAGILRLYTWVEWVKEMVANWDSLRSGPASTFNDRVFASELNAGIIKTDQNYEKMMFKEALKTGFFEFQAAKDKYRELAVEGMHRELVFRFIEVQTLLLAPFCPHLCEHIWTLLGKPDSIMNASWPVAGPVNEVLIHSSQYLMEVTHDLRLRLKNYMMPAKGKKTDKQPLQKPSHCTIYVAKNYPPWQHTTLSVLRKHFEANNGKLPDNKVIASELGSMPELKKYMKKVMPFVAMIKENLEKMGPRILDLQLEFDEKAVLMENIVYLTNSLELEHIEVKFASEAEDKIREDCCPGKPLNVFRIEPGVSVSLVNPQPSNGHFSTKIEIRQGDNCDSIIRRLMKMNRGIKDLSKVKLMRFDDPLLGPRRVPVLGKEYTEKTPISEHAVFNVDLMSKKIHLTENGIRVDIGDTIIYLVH

In experiment [2] the target is T1, Leucine--tRNA ligase, cytoplasmic. As to the kind of experiment: Inhibition of LRS-dependent mTORC1 activation in HEK293 cells assessed as reduction in leucine-induced mTORC1-mediated S6 Kinase phosphorylation pretreated before leucine stimulation measured after 10 mins by immunoblot analysis. Type of experiment: cell-based.
Another experiment deals with A549. The experiment can be described thus: Growth inhibition of human A549 cells incubated for 72 hrs by sulforhodamine B assay. The format is functional, cell-based. The following applies: A549, 72 h.
A further experiment deals with HCT-116. The experiment can be described thus: Growth inhibition of human HCT116 cells incubated for 72 hrs by sulforhodamine B assay. The format is functional, cell-based. The following applies: HCT-116, 72 h.
Another experiment concerns K562. As to the kind of experiment: Growth inhibition of human K562 cells incubated for 72 hrs by sulforhodamine B assay. The format is functional, cell-based. The note with it: K562, 72 h. A general note: Sulforhodamine B stains cellular protein and so reports cell mass.
For the next experiment, the system named is MDA-MB-231. As to the kind of experiment: Growth inhibition of human MDA-MB-231 cells incubated for 72 hrs by sulforhodamine B assay. The format is functional, cell-based. The following applies: MDA-MB-231, 72 h.
For the next experiment, the system named is SK-HEP1. As to the kind of experiment: Growth inhibition of human SKHEP1 cells incubated for 72 hrs by sulforhodamine B assay. The format is functional, cell-based. The following applies: SK-HEP1, 72 h.
For another experiment, the system named is SNU-638. The experiment can be described thus: Growth inhibition of human SNU638 cells incubated for 72 hrs by sulforhodamine B assay. Type of experiment: functional, cell-based. The note with it: SNU-638, 72 h.
Another experiment has as its system MRC5. The experiment can be described thus: Growth inhibition of human MRC5 cells incubated for 72 hrs by sulforhodamine B assay. Type of experiment: cell-based. The following applies: MRC5, 72 h.
Experiment [3] deals with T1, Leucine--tRNA ligase, cytoplasmic. As to the kind of experiment: Inhibition of LRS canonical enzyme activity in HEK293 cells assessed as effect on enzyme-mediated aminoleucylation. Type of experiment: cell-based.
Target sequence in this assay (Q9P2J5 whole entry): as the sequence (Q9P2J5 whole entry, looked up) above
Experiment [4] has the same target. As to the kind of experiment: Inhibition of LRS-dependent mTORC1 activation in HEK293 cells assessed as reduction in leucine-induced mTORC1-mediated S6 Kinase phosphorylation at 20 to 200 uM pretreated before leucine stimulation measured after 10 mins by immunoblot analysis. Type of experiment: cell-based.
Target sequence in this assay (Q9P2J5 whole entry, looked up): as above
Experiment [5] has the same target. The experiment can be described thus: Inhibition of LRS-dependent mTORC1 activation in HEK293 cells assessed as reduction in leucine-induced mTORC1-mediated S6 Kinase phosphorylation at 100 nM pretreated before leucine stimulation measured after 10 mins by immunoblot analysis. The format is cell-based.
Target sequence in this assay (Q9P2J5 whole entry, looked up): as above

By pIC50 is commonly meant −log10 of the IC50, conventionally taken in molar units. With `COc1ccc(CNS(=O)(=O)c2ccc(NC(=O)[C@@H](N)CC(C)C)cc2)cc1OC`, in experiment [1], the “inhibition of S6K phosphorylation (qualitative)” value (from here on “inhibition … (qualitative)”) is “Active”. The pIC50 in [2] was 4.35; in the experiment on A549 it was 5.28; in the experiment on HCT-116, 5.40; with K562, 5.35; with MDA-MB-231, 5.26; in the experiment on SK-HEP1 it was 5.51. Also, the pIC50 with SNU-638 is 5.20; in the experiment on MRC5, less than 4.70; in [3], less than 3.10. Besides, the inhibition entry in [2] was “Dose-dependent effect”.
On to `COc1ccc(CNS(=O)(=O)c2ccc(NC(=O)[C@@H](O)CC(C)C)cc2)cc1OC`, for which the “inhibition … (qualitative)” value in experiment [1] is “Active”.
`COc1ccc(CNS(=O)(=O)c2ccc(N3C[C@H](CC(C)C)NC3=O)cc2)cc1OC`: in experiment [4], the inhibition entry is “inactive”.
Consider `COc1ccc(CNS(=O)(=O)c2ccc(NC(=O)[C@@H](O)[C@H](O)C(C)C)cc2)cc1OC`, for which, in [1], the “inhibition … (qualitative)” value was “Active”.
Turning to `CC(C)C[C@H](O)C(=O)NS(=O)(=O)OC[C@H]1O[C@@H](n2cnc3c(N)nc(I)nc32)[C@H](O)[C@@H]1O`, the “inhibition … (qualitative)” value in [1] is “Active”.
For the compound `COc1cc([C@@H]2c3cc4c(cc3[C@@H](O[C@@H]3O[C@@H]5CO[C@@H](C)O[C@H]5[C@H](O)[C@H]3O)[C@H]3COC(=O)[C@H]23)OCO4)cc(OC)c1O` [ETOPOSIDE], the pIC50 with A549 was 6.52; in the experiment on HCT-116 it was 5.97; in the experiment on K562, 6.12; in the experiment with MDA-MB-231, 5.82; in the experiment on SK-HEP1, 6.20; in the experiment on SNU-638, 5.98. The compound also gave a pIC50 in the experiment with MRC5 of 4.93.
Turning to `COc1ccc(CNS(=O)(=O)c2ccc(N3C(=O)N[C@@H](CC(C)C)C3=O)cc2)cc1OC`, the pIC50 in experiment [2] was 4.58; with A549, 5.26; in the experiment with HCT-116 it was 5.37; with K562, 5.54; in the experiment with MDA-MB-231 it was 5.25; in the experiment with SK-HEP1, 5.61. Besides, the pIC50 in the experiment on SNU-638 was 5.28; with MRC5, less than 4.70; in experiment [3], less than 3.10. Besides, the inhibition result in experiment [2] is “Dose-dependent effect”.
For the compound `CO[C@H]1C[C@@H]2CC[C@@H](C)[C@@](O)(O2)C(=O)C(=O)N2CCCC[C@H]2C(=O)O[C@H]([C@H](C)C[C@@H]2CC[C@@H](O)[C@H](OC)C2)CC(=O)[C@H](C)/C=C(\C)[C@@H](O)[C@@H](OC)C(=O)[C@H](C)C[C@H](C)/C=C/C=C/C=C/1C`, in experiment [5], the inhibition result was “Active”.

The values are drawn from ChEMBL document CHEMBL4052681, “Discovery of simplified leucyladenylate sulfamates as novel leucyl-tRNA synthetase (LRS)-targeted mammalian target of rapamycin complex 1 (mTORC1) inhibitors” (Bioorg Med Chem, 2017).
